This passage reports EC50 results from patent US20240294508A1, “RIP1 MODULATORS INCLUDING AZETIDINE CYCLIC UREAS, PREPARATIONS, AND USES THEREOF” (SIRONAX LTD., priority 2021, published 2024).

Molecules are shown by their SMILES.

This test deals with HT-29 cells. The experiment in a line: HT29 cells 0FBS assay in vitro: TNF-α/SMAC mimetic/zVAD-FMK induced necroptosis, CellTiter-Glo cell viability (RIP1 inhibitory activity). The conditions noted are these: Homo sapiens, FBS free medium, TNF-α (10 ng/ml) + SMAC mimetic (6 uM) + zVAD-FMK (10 μM), 20 hours, geometric mean EC50. The format is cell-based. An outline of the steps: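 HT-29 cells (5,000/well, overnight) switched to FBS-free McCOY's 5A with TNF-α (10 ng/ml), SMAC mimetic (6 uM) and zVAD-FMK (10 μM) to drive necroptosis, plus compound, for 20 hours at 37° C. Viability read by CellTiter-Glo luminescence; geometric mean EC50 from 10-point duplicate dose-response.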
For `Cc1nc(C2CC=NN2C(=O)N2CC(Oc3cc(-c4c(C)cnn4C)c(F)cc3F)C2)cs1` (centres unmarked) [Compound 131, (3-(5-(1,4-dimethyl-1H-pyrazol-5-yl)-2,4-difluorophenoxy)azetidin-1-yl)(5-(2-methylthiazol-4-yl)-4,5-dihydro-1H-pyrazol-1-yl)methanone], the half-maximal effective concentration (EC50) lay within 0.1 to 100 nM.

Take `Cc1nc(C2CC=NN2C(=O)N2CC(Oc3cc(-c4ccnn4C)c(F)cc3F)C2)cs1` (centres unmarked) [Compound 132, (3-(2,4-difluoro-5-(1-methyl-1H-pyrazol-5-yl)phenoxy)azetidin-1-yl)(5-(2-methylthiazol-4-yl)-4,5-dihydro-1H-pyrazol-1-yl)methanone]: the EC50 is 0.1 to 100 nM. For the compound `Cc1nn(-c2cc(OC3CN(C(=O)N4N=CC[C@H]4c4cc(F)cc(Cl)c4)C3)c(F)cn2)c(C)c1C(N)=O` [Compound 133, (S)-1-(4-((1-(5-(3-chloro-5-fluorophenyl)-4,5-dihydro-1H-pyrazole-1-carbonyl)azetidin-3-yl)oxy)-5-fluoropyridin-2-yl)-3,5-dimethyl-1H-pyrazole-4-carboxamide], the 50% effective concentration (EC50) lay within 0.1 to 100 nM. With `Cc1nn(-c2cc(OC3CN(C(=O)N4N=CC[C@@H]4c4cc(F)cc(Cl)c4)C3)c(F)cn2)c(C)c1C(N)=O` [Compound 134, (R)-1-(4-((1-(5-(3-chloro-5-fluorophenyl)-4,5-dihydro-1H-pyrazole-1-carbonyl)azetidin-3-yl)oxy)-5-fluoropyridin-2-yl)-3,5-dimethyl-1H-pyrazole-4-carboxamide] the figure was 100 to 1000 nM. The same measure for `Cc1cc(F)cc([C@@H]2CC=NN2C(=O)N2CC(Oc3cc(-n4nc(C)c(C(N)=O)c4C)ncc3F)C2)c1` [Compound 135, (S)-1-(5-fluoro-4-((1-(5-(3-fluoro-5-methylphenyl)-4,5-dihydro-1H-pyrazole-1-carbonyl)azetidin-3-yl)oxy)pyridin-2-yl)-3,5-dimethyl-1H-pyrazole-4-carboxamide]: 0.1 to 100 nM; for `Cc1cc(F)cc([C@H]2CC=NN2C(=O)N2CC(Oc3cc(-n4nc(C)c(C(N)=O)c4C)ncc3F)C2)c1` [Compound 136, (R)-1-(5-fluoro-4-((1-(5-(3-fluoro-5-methylphenyl)-4,5-dihydro-1H-pyrazole-1-carbonyl)azetidin-3-yl)oxy)pyridin-2-yl)-3,5-dimethyl-1H-pyrazole-4-carboxamide]: 100 to 1000 nM.

With `Cc1cnc([C@H]2CC=NN2C(=O)N2CC(Oc3cc(-c4c(C)cnn4C)ncc3F)C2)s1` [Compound 137, (R)-(3-((2-(1,4-dimethyl-1H-pyrazol-5-yl)-5-fluoropyridin-4-yl)oxy)azetidin-1-yl)(5-(5-methylthiazol-2-yl)-4,5-dihydro-1H-pyrazol-1-yl)methanone], the EC50 lay within 1000 to 10000 nM.

Turning to `Cc1cnc([C@@H]2CC=NN2C(=O)N2CC(Oc3cc(-c4c(C)cnn4C)ncc3F)C2)s1` [Compound 138, (S)-(3-((2-(1,4-dimethyl-1H-pyrazol-5-yl)-5-fluoropyridin-4-yl)oxy)azetidin-1-yl)(5-(5-methylthiazol-2-yl)-4,5-dihydro-1H-pyrazol-1-yl)methanone], the EC50 lay within 0.1 to 100 nM. With `Cc1cnc(C2CC=NN2C(=O)N2CC(Oc3nc(-c4ccnn4C)c(F)cc3F)C2)s1` (centres unmarked) [Compound 139, (3-((3,5-difluoro-6-(1-methyl-1H-pyrazol-5-yl)pyridin-2-yl)oxy)azetidin-1-yl)(5-(5-methylthiazol-2-yl)-4,5-dihydro-1H-pyrazol-1-yl)methanone] the figure was 0.1 to 100 nM; with `Cc1nn(-c2cc(OC3CN(C(=O)N4N=CC[C@H]4c4cc(F)cc(Cl)c4)C3)c(F)cn2)c(C)c1C(=O)O` [Compound 140, (S)-1-(4-((1-(5-(3-chloro-5-fluorophenyl)-4,5-dihydro-1H-pyrazole-1-carbonyl)azetidin-3-yl)oxy)-5-fluoropyridin-2-yl)-3,5-dimethyl-1H-pyrazole-4-carboxylic acid], 0.1 to 100 nM; with `Cc1nn(-c2cc(OC3CN(C(=O)N4N=CC[C@@H]4c4cc(F)cc(Cl)c4)C3)c(F)cn2)c(C)c1C(=O)O` [Compound 141, (R)-1-(4-((1-(5-(3-chloro-5-fluorophenyl)-4,5-dihydro-1H-pyrazole-1-carbonyl)azetidin-3-yl)oxy)-5-fluoropyridin-2-yl)-3,5-dimethyl-1H-pyrazole-4-carboxylic acid], 100 to 1000 nM. As to `Cc1cc(F)cc([C@@H]2CC=NN2C(=O)N2CC(Oc3cc(-n4nc(C)c(C(=O)O)c4C)ncc3F)C2)c1` [Compound 142, (S)-1-(5-fluoro-4-((1-(5-(3-fluoro-5-methylphenyl)-4,5-dihydro-1H-pyrazole-1-carbonyl)azetidin-3-yl)oxy)pyridin-2-yl)-3,5-dimethyl-1H-pyrazole-4-carboxylic acid], the 50% effective concentration (EC50) was in the range of 0.1 to 100 nM.

For the compound `Cc1cc(F)cc([C@H]2CC=NN2C(=O)N2CC(Oc3cc(-n4nc(C)c(C(=O)O)c4C)ncc3F)C2)c1` [Compound 143, (R) 1-(5-fluoro-4-((1-(5-(3-fluoro-5-methylphenyl)-4,5-dihydro-1H-pyrazole-1-carbonyl)azetidin-3-yl)oxy)pyridin-2-yl)-3,5-dimethyl-1H-pyrazole-4-carboxylic acid], the half-maximal effective concentration (EC50) lay in the range of 100 to 1000 nM. The same measure for `Cc1cnn(C)c1-c1cc(OC2CN(C(=O)N3N=CCC3c3nc(C)c(C)s3)C2)c(F)cn1` (centres unmarked) [Compound 144, (3-((2-(1,4-dimethyl-1H-pyrazol-5-yl)-5-fluoropyridin-4-yl)oxy)azetidin-1-yl)(5-(4,5-dimethylthiazol-2-yl)-4,5-dihydro-1H-pyrazol-1-yl)methanone]: 100 to 1000 nM; for `Cc1cnn(C)c1-c1cc(OC2CN(C(=O)N3N=CCC3c3ccn(C)c3)C2)c(F)cn1` (centres unmarked) [Compound 145, (3-((2-(1,4-dimethyl-1H-pyrazol-5-yl)-5-fluoropyridin-4-yl)oxy)azetidin-1-yl)(5-(1-methyl-1H-pyrrol-3-yl)-4,5-dihydro-1H-pyrazol-1-yl)methanone]: 0.1 to 100 nM. As for `Cc1cnn(C)c1-c1csc(OC2CN(C(=O)N3N=CC[C@H]3c3cc(F)cc(F)c3)C2)n1` [Compound 146, (S)-(5-(3,5-difluorophenyl)-4,5-dihydro-1H-pyrazol-1-yl)(3-((4-(1,4-dimethyl-1H-pyrazol-5-yl)thiazol-2-yl)oxy)azetidin-1-yl)methanone], the EC50 was 0.1 to 100 nM. The same measure for `Cn1nccc1-c1csc(OC2CN(C(=O)N3N=CC[C@H]3c3cc(F)cc(F)c3)C2)n1` [Compound 147, (S)-(5-(3,5-difluorophenyl)-4,5-dihydro-1H-pyrazol-1-yl)(3-((4-(1-methyl-1H-pyrazol-5-yl)thiazol-2-yl)oxy)azetidin-1-yl)methanone]: 0.1 to 100 nM; for `Cc1cnn(C)c1-c1nc(OC2CN(C(=O)N3N=CC[C@H]3c3cc(F)cc(F)c3)C2)sc1Cl` [Compound 149, (S)-(3-((5-chloro-4-(1,4-dimethyl-1H-pyrazol-5-yl)thiazol-2-yl)oxy)azetidin-1-yl)(5-(3,5-difluorophenyl)-4,5-dihydro-1H-pyrazol-1-yl)methanone]: 0.1 to 100 nM. The same measure for `Cn1ncc(C#N)c1-c1csc(OC2CN(C(=O)N3N=CC[C@H]3c3cc(F)cc(F)c3)C2)n1` [Compound 150, (S)-5-(2-((1-(5-(3,5-difluorophenyl)-4,5-dihydro-1H-pyrazole-1-carbonyl)azetidin-3-yl)oxy)thiazol-4-yl)-1-methyl-1H-pyrazole-4-carbonitrile]: 0.1 to 100 nM; for `Cc1cnn(C)c1-c1nc(OC2CN(C(=O)N3N=CC[C@H]3c3cncc(F)c3)C2)sc1C#N` [Compound 152, (S)-4-(1,4-dimethyl-1H-pyrazol-5-yl)-2-((1-(5-(5-fluoropyridin-3-yl)-4,5-dihydro-1H-pyrazole-1-carbonyl)azetidin-3-yl)oxy)thiazole-5-carbonitrile]: 0.1 to 100 nM; for `Cn1nccc1-c1cnc(OC2CN(C(=O)N3N=CC[C@H]3c3cc(F)cc(F)c3)C2)s1` [Compound 153, (S)-(5-(3,5-difluorophenyl)-4,5-dihydro-1H-pyrazol-1-yl)(3-((5-(1-methyl-1H-pyrazol-5-yl)thiazol-2-yl)oxy)azetidin-1-yl)methanone]: 0.1 to 100 nM. For the compound `Cc1cnn(C)c1-c1cnc(OC2CN(C(=O)N3N=CC[C@H]3c3cc(F)cc(F)c3)C2)s1` [Compound 154, (S)-(5-(3,5-difluorophenyl)-4,5-dihydro-1H-pyrazol-1-yl)(3-((5-(1,4-dimethyl-1H-pyrazol-5-yl)thiazol-2-yl)oxy)azetidin-1-yl)methanone], the 50% effective concentration (EC50) was in the range of 0.1 to 100 nM. On to `Cc1cnn(C)c1-c1nc(OC2CN(C(=O)N3N=CC[C@H]3c3cc(F)cc(F)c3)C2)sc1CO` [Compound 157, (S)-(5-(3,5-difluorophenyl)-4,5-dihydro-11H-pyrazol-1-yl)(3-((4-(1,4-dimethyl-1H-pyrazol-5-yl)-5-(hydroxymethyl)thiazol-2-yl)oxy)azetidin-1-yl)methanone], for which the EC50 is 1000 to 10000 nM. With `Cc1cnn(C)c1-c1nc(OC2CN(C(=O)N3N=CCC3c3cc(F)cc(F)c3)C2)c(F)cc1F` (centres unmarked) [Compound 158, (5-(3,5-difluorophenyl)-4,5-dihydro-1H-pyrazol-1-yl)(3-((6-(1,4-dimethyl-1H-pyrazol-5-yl)-3,5-difluoropyridin-2-yl)oxy)azetidin-1-yl)methanone] the figure was 0.1 to 100 nM; with `Cc1nn(-c2cc(OC3CN(C(=O)N4N=CC[C@H]4c4cc(F)cc(F)c4)C3)c(Cl)cn2)c(C)c1C#N` [Compound 159, (S)-1-(5-chloro-4-((1-(5-(3,5-difluorophenyl)-4,5-dihydro-1H-pyrazole-1-carbonyl)azetidin-3-yl)oxy)pyridin-2-yl)-3,5-dimethyl-1H-pyrazole-4-carbonitrile], 0.1 to 100 nM. The same measure for `Cc1nn(-c2cc(OC3CN(C(=O)N4N=CC[C@H]4c4cc(F)cc(F)c4)C3)c(Cl)cn2)c(C)c1C(N)=O` [Compound 160, (S)-1-(5-chloro-4-((1-(5-(3,5-difluorophenyl)-4,5-dihydro-1H-pyrazole-1-carbonyl)azetidin-3-yl)oxy)pyridin-2-yl)-3,5-dimethyl-1H-pyrazole-4-carboxamide]: 0.1 to 100 nM.

Broadly, the EC50 is the midpoint of the concentration-response curve.
